Where two headings read alike, the source gives them in different places.
Test system: NCI-60 human tumor cell lines
Assay: NCI-60 five-dose assay, mean graph midpoint
Format: cell-based
[1] = Homo sapiens, read-out: cytotoxicity (GI50, μM) MGM, mean graph midpoint of growth inhibition from 5 dose assay, ranging from 10^−8–10^−4 M

GI50 (human) | Compound | GI50 [1]
 | CC[C@@]1(O)C(=O)OCc2c1cc1n(c2=O)Cc2cc3c(CN(C)C)c(O)ccc3nc2-1 [Compound 2, topotecan, reference compound] | 0.0405 ± 0.0187 µM
 | O=C1c2ccccc2-c2c1c1ccc(Cl)cc1c(=O)n2C[C@H](O)CO [Compound 50, (S)-3-Chloro-5,6-dihydro-6-(2,3-dihydroxypropyl)-5,11-dioxo-11H-indeno[1,2-c]isoquinoline] | 1.12 µM
 | O=C1c2ccccc2-c2c1c1ccc(F)cc1c(=O)n2CCCn1ccnc1 [Compound 60, 3-Fluoro-5,6-dihydro-6-(3-(1H-imidazol-1-yl)propyl)-5,11-dioxo-11H-indeno[1,2-c]isoquinoline] | 0.692 µM
1.62 µM | O=C1c2ccccc2-c2c1c1ccc(I)cc1c(=O)n2CCCn1ccnc1 [Compound 62, 5,6-Dihydro-6-(3-(1H-imidazol-1-yl)propyl)-3-iodo-5,11-dioxo-11H-indeno[1,2-c]isoquinoline] | ≥ 0.944 µM
 | O=C1c2ccccc2-c2c1c1cc(C(F)(F)F)ccc1c(=O)n2CCCn1ccnc1 [Compound 63, 2-(Trifluoromethyl)-5,6-dihydro-6-(3-(1H-imidazol-1-yl)-propyl)-5,11-dioxo-11H-indeno[1,2-c]isoquinoline] | ≥ 0.944 µM
 | O=C1c2ccccc2-c2c1c1ccc(C(F)(F)F)cc1c(=O)n2CCCn1ccnc1 [Compound 64, 3-(Trifluoromethyl)-5,6-dihydro-6-(3-(1H-imidazol-1-yl)-propyl)-5,11-dioxo-11H-indeno[1,2-c]isoquinoline] | 1.07 µM
 | O=C1c2ccccc2-c2c1c1ccc(F)cc1c(=O)n2CCCN1CCOCC1 [Compound 68, 3-Fluoro-5,6-dihydro-6-(3-morpholinopropyl)-5,11-dioxo-11H-indeno[1,2-c]isoquinoline] | 2.75 µM
 | O=C1c2ccccc2-c2c1c1ccc(Cl)cc1c(=O)n2CCCN1CCOCC1 [Compound 69, 3-Chloro-5,6-dihydro-6-(3-morpholinopropyl)-5,11-dioxo-11H-indeno[1,2-c]isoquinoline] | 4.17 µM
